The nature of data set [1]: In vivo renal clearance / pharmacokinetics of AAI after intravenous administration with or without JBP485. More on the design: species or system rat. To be noted: rats, i.v. How it is done:
Rats were randomly assigned to an AAI (4 mg/kg) group or an AAI (4 mg/kg) + JBP485 (50 mg/kg) group (n = 5 per group). The drugs were diluted in normal saline and administered intravenously via the left jugular vein. Subsequently, blood samples (0.2 mL) were collected via the right jugular vein with heparinized syringes at 1, 3, 5, 10, 30, 60, 120, 240, 360, and 480 min post-treatment. Isotonic saline solution (0.2 mL) was injected after each blood sample collection. Urine was collected directly from the bladder at 2, 4, 6, and 8 h after drug administration. AAI concentrations were measured by LC–MS/MS. Pharmacokinetic parameters, renal clearance (CLR), and cumulative urinary excretion were calculated.
(§1) The concentrations of the test compounds in plasma, urine, and cell lysates were determined using an Agilent HP1200 liquid chromatography system (Agilent Technology Inc., SC, CA, United States) and an API 3200 triple-quadrupole mass spectrometer (Applied Biosystems, SC, CA, United States). After protein precipitation using acetonitrile, the analyte was separated on a Hypersil BDS C18 column. The mobile phase consisted of acetonitrile and water containing 0.1% (v/v) formic acid (80:20, v/v). The flow rate was 0.4 mL/min. The mass spectrometer was equipped with an electrospray ionization (ESI) source. Data were acquired in positive ion mode and dynamic multiple reaction monitoring (MRM) mode. The ESI source conditions were as follows: ion spray voltage, 5.5 kV; ion source temperature, 600°C; Gas source 1 (GS1, N2) pressure, 50 psi; Gas source 2 (GS2, N2) pressure, 60 psi; curtain gas (CUR) pressure, 12 psi; and collision gas (CAD) pressure, 10 psi. EP and CXP were set at […] for all analytes. The scan range was m/z 359.9→298.1 for AAI and m/z 130.0→71.2 for IS (Internal Standard, metformin). […] Intra- and inter-day precision was lower than 4.5% with reference to relative standard deviation, while accuracy was within ±6.5% in terms of relative error for analytes. Analyst software (version 1.4.1) was used for equipment control and data acquisition and analysis.

Data set [2] deals with NRK-52E cells. Put plainly: CCK-8 cell viability assay. In kind it is cell-based, rat. How it is done:
AAI was prepared to make a series of working dilutions in serum-free DMEM. The NRK-52E cells were plated in 96-well plates at a density of 5 ×10^4 cells/mL for 24 h at 37 °C and then challenged with various concentrations of AAI (0, 1, 2, 4, 8, 16, 32, 64, 128 and 256 μM). Cell viability was assessed using the CCK-8 assay.
NRK-52E cells were seeded in 96-well plates at a density of 5 × 10^4 cells/mL and incubated for 24 h at 37 °C. Following pretreatment with various concentrations of JBP485 (7.8125, 15.625, 31.25, 62.5, 125, and 250 μM) for 2.5 h, the cells were challenged with AAI (11 μM) for 24 h. Cell viability was subsequently assayed using a CCK-8 kit.
(Tetrazolium assays rely on reduction of a dye to a coloured formazan, in cell work by metabolically active cells.)

The target in another data set is T1, hOAT3 (Homo sapiens, UniProt Q8TCC7).
T1 construct: expressed in transfected cells; host or cells: HEK293
T1 sequence (Q8TCC7 1-542): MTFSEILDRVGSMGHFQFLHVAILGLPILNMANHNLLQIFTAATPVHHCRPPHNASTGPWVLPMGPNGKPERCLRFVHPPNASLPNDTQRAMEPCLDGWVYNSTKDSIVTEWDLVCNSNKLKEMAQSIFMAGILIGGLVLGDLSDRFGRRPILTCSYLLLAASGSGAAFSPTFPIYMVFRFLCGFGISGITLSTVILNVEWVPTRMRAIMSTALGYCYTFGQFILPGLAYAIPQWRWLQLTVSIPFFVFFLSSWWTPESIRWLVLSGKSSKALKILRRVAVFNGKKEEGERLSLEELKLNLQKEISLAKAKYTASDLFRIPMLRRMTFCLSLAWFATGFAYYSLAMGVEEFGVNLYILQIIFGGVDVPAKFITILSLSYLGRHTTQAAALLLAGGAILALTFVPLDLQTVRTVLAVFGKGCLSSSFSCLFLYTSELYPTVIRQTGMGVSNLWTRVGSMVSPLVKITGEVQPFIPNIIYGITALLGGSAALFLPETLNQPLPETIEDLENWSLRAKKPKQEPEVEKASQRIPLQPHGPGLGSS
The experiment in a line: Uptake of AAI by hOAT3-transfected HEK293 cells with or without JBP485. It is filed as cell-based. How it is done: Uptake experiments with hOAT1/3-HEK293 cells were performed as previously described ([Zhu et al., 2020]). Uptake was initiated by adding transport buffer (1 mL) with AAI (1 μM) and/or JBP485 (500 μM) after the cells were washed twice and incubated with transport buffer at 37°C. Moreover, the concentration-dependent uptake of AAI and the effects of JBP485 on AAI uptake were examined. Uptake was terminated upon the removal of the medium. The cells were washed three times with 1 mL of ice-cold Hanks’ balanced salt solution, lysed with 0.3 mL of 0.1% (v/v) Triton X-100, and then transferred to a polythene tube for quantification by LC-MS/MS. The protein level was measured using the BCA method (Solarbio, Beijing, China) with bovine serum albumin serving as the standard.
as §1

Data set [3] has as its system NRK-52E cells. The experiment in a line: Intracellular ROS level by DCFH-DA flow cytometry. In kind it is cell-based, rat. As for the experimental part: NRK-52E cells were plated in 6-well culture plates at a density of 5 ×10^4 cells/mL and treated with various concentrations of JBP485 (62.5, 125 and 250 μM) for 2.5 h. After challenge with AAI (11 μM) for 24 h, the cells were harvested and resuspended in 500 μL of DCFH-DA (10 μM) for the detection of ROS by flow cytometry (Becton Dickinson, United States) (Aagaard et al., 2014).

[4] abbreviates: AAI 4 mg/kg with or without JBP485 50 mg/kg, n = 5.

Take `O=C1N[C@@H](CO)C(=O)N2C[C@H](O)C[C@@H]12` (relative stereo) [JBP485, cyclo-trans-4-L-hydroxyprolyl-L-serine]: the “cumulative urinary excretion of AAI over 8 h” value in data set [1] (co-treatment with JBP485 50 mg/kg vs AAI 4 mg/kg alone) is “reduction”. Moreover, in data set [1] (concurrent JBP485 50 mg/kg vs AAI 4 mg/kg alone), the AAI plasma concentrations entry is given as “significantly increased”. Further, in the data set on NRK-52E cells [2] (JBP485 7.8125-250 μM pretreatment 2.5 h, AAI 11 μM 24 h), the “survival rates of NRK-52E cells challenged with AAI” value is “dose-dependently increased”. For the same compound, the “toxicity against NRK-52E cells” value in the data set with NRK-52E cells [2] (JBP485 alone, concentrations up to 256 μM) is given as “no JBP485-related toxicity”. The “type of inhibition of AAI uptake” value on hOAT3 (hOAT3-HEK293 cells, Km increased, Vmax unchanged) is reported as “competitive inhibition”. In addition, the half-maximal inhibitory concentration (IC50) (commonly the midpoint of a concentration-inhibition curve) at hOAT3 (hOAT3-transfected HEK293 cells, substrate AAI, read-out: IC50 of inhibition of AAI uptake, OAT3) was determined as 91 ± 10.3 µM. In addition, the “ROS production in NRK-52E cells” value in the data set on NRK-52E cells [3] (JBP485 alone vs control) is listed as “did not alter”. In addition, the “AAI-induced rise in ROS production in NRK-52E cells” value with NRK-52E cells [3] (JBP485 co-administered with AAI 11 μM) was “significantly attenuated”.
For `COc1cccc2c1cc([N+](=O)[O-])c1c(C(=O)O)cc3c(c12)OCO3` [AAI, Aristolochic Acid I], in data set [1] (setting [4]), the “AUC0-∞ of AAI” value was 536.2 ± 14.3 µg·min/L, the “AUC(0-t) of AAI” value amounted to 496.0 ± 14.5 µg·min/L, the “CLR (renal clearance) of AAI” value amounted to 1.24 ± 0.09 L/min/kg and the “CLp (plasma clearance) of AAI” value is reported as 7.5 ± 0.2 L/min/kg. Besides, in data set [1] (setting [4]), the “Vd of AAI” value is recorded as 232.9 ± 13.0 L/kg and the “t1/2β of AAI” value is reported as 96.6 ± 6.41 min. Further, the “concentration at which proliferation of NRK-52E cells is significantly inhibited (as low as)” value in the data set on NRK-52E cells [2] (CCK-8) is 2 µM. Besides, the IC50 in the data set with NRK-52E cells [2] (CCK-8, read-out: IC50 for NRK-52E cells (cytotoxicity)) was 11 µM. In addition, at hOAT3 (hOAT3-HEK293 cells, with or without JBP485, Eadie-Hofstee, n = 3), the Km (usually the concentration of substrate that gives half-maximal velocity) is 30.6 ± 1.2 µM. The “Vmax of AAI uptake” value at hOAT3 (hOAT3-HEK293 cells, with or without JBP485, n = 3) is given as 0.077 ± 0.03 nmol/mg protein/1min. For the same compound, the “ROS generation in NRK-52E cells” value with NRK-52E cells [3] (AAI alone 11 μM 24 h vs control) was “significant increase”.

The values above are taken from PMC12074917, “Molecular pharmacokinetic mechanism of JBP485 against aristolochic acid I (AAI) -induced nephrotoxicity” (Frontiers in Pharmacology, 2025).
